Results as given in patent publication US20250127914A1, “ANTIBODY-CONJUGATED 8-SULFONYL-BENZAZEPINE COMPOUNDS AND THEIR USES” (BOLT BIOTHERAPEUTICS, INC., priority 2022, published 2025).
pEC50: −log10 of the molar value.

What was measured:
human TLR8 = target: T1, human TLR8 (Homo sapiens, UniProt Q9NR97); assay: HEK Reporter Assay, human TLR8; format: cell-based; settings: HEK293 NFKB reporter cells expressing human TLR8; read-out: HEK293 hTLR8 EC50
T1 construct: host or cells: HEK293 NF-kB reporter cells
T1 sequence (Q9NR97 27-1041): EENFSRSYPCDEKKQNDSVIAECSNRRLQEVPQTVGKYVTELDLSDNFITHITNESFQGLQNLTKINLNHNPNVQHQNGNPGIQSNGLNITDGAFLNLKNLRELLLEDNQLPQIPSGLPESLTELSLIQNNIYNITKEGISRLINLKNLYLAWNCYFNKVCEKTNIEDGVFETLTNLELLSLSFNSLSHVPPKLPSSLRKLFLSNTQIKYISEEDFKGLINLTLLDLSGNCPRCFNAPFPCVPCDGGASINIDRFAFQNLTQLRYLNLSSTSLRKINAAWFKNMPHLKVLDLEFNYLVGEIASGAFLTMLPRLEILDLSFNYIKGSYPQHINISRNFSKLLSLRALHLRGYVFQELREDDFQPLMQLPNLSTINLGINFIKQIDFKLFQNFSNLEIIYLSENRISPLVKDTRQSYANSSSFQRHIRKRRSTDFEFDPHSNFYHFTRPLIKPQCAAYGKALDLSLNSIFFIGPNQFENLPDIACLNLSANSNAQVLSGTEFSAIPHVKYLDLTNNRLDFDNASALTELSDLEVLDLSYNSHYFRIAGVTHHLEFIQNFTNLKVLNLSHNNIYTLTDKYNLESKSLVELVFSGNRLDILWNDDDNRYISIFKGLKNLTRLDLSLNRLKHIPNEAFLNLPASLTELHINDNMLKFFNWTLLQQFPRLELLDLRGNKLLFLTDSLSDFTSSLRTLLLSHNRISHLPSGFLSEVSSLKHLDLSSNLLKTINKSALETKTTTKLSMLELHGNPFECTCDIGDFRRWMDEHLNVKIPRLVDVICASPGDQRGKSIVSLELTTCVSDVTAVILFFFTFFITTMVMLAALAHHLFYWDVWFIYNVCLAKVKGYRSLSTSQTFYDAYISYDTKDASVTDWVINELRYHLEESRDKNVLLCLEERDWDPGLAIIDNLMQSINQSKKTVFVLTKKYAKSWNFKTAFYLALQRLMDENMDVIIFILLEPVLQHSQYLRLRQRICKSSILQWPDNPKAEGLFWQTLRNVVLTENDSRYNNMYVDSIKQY
Procedure: (§1) Exemplary 8-sulfonyl-2-aminobenzazepine compounds (8SO2Bz) of the invention were synthesized, purified, and characterized by mass spectrometry and shown to have the expected mass. Additional experimental procedures are found in the Examples. Activity against HEK293 NFKB reporter cells expressing human TLR7 or human TLR8 was measured according to Example 202.
(§2) HEK293 reporter cells expressing human TLR7 or human TLR8 were purchased from Invivogen and vendor protocols were followed for cellular propagation and experimentation. Briefly, cells were grown to 80-85% confluence at 5% CO2 in DMEM supplemented with 10% FBS, Zeocin, and Blasticidin. Cells were then seeded in 96-well flat plates at 4×10^4 cells/well with substrate containing HEK detection medium and immunostimulatory molecules. Activity was measured using a plate reader at 620-655 nm wavelength.

human TLR7 = target: T2, human TLR7 (Homo sapiens, UniProt Q9NYK1); assay: HEK Reporter Assay, human TLR7; format: cell-based; settings: HEK293 NFKB reporter cells expressing human TLR7; read-out: HEK293 hTLR7 EC50
T2 construct: host or cells: HEK293 NF-kB reporter cells
T2 sequence (Q9NYK1 27-1049): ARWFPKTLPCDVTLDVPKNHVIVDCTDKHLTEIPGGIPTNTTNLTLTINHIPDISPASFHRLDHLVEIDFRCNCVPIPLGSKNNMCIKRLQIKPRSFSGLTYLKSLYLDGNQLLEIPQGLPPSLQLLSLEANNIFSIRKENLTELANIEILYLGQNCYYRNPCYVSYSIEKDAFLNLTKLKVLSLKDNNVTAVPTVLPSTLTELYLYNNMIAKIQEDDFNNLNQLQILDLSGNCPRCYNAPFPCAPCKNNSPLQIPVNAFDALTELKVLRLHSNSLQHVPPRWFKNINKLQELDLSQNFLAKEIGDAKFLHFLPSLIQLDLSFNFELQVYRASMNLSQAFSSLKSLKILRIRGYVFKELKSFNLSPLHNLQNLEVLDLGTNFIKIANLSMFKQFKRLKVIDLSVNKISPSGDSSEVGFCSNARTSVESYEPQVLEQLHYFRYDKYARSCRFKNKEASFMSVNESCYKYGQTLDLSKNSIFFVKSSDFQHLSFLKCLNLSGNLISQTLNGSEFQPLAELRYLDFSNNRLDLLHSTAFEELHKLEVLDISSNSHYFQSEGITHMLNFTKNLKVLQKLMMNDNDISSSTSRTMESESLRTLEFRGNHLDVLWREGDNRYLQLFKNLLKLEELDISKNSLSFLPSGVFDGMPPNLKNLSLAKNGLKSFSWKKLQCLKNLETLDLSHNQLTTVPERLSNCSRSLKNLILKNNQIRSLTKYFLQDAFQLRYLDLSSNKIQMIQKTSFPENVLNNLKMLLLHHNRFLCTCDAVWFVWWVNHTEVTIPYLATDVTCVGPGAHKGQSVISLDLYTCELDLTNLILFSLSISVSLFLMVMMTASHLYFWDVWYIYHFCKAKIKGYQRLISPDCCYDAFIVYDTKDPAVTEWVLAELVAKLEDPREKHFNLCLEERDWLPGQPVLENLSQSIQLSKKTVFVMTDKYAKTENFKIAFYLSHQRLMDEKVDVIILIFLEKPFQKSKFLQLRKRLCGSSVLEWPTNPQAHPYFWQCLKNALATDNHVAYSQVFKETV
Procedure: as §1, §2

Structure (SMILES)	pEC50 (human TLR8)	pEC50 (human TLR7)
CCCN(OCC)C(=O)C1=Cc2ccc(S(=O)(=O)c3ccc(C(=O)OC)cc3)cc2N=C(N)C1	5.98	
CCCN(OCCNC(=O)OC(C)(C)C)C(=O)C1=Cc2ccc(S(=O)(=O)N(C)C)cc2N=C(N)C1 [Immunoconjugate 8SO2Bz-2]	> 8.64	6.40
CCCN(OCC)C(=O)C1=Cc2ccc(S(=O)(=O)NC)cc2N=C(N)C1 [Immunoconjugate 8SO2Bz-3]	6.69	
